Data from paper PMC12298351, “Novel 3,19-(N-Phenyl-3-(4-fluorophenyl)-pyrazole) Acetal of Andrographolide Promotes Cell Cycle Arrest and Apoptosis in MDA-MB-231 Breast Cancer Cells” (Pharmaceuticals, 2025).

What was measured:
[1] = system: SNB-19; assay type: cell-based; conditions: SNB-19, CNS
[2] = system: BT-549; assay type: cell-based; conditions: BT-549, Breast
[3] = system: K-562; conditions: K-562, Leukemia
[4] = system: A549/ATCC
[5] = system: HOP-92
[6] = system: NCI-H226
[7] = system: NCI-H460
[8] = system: COLO 205; conditions: COLO 205, Colon
[9] = system: HT29; conditions: HT29, Colon
[10] = system: KM12; conditions: KM12, Colon
[11] = system: SW-620; conditions: SW-620, Colon
[12] = system: SF-268; conditions: SF-268, CNS
[13] = system: SNB-75; conditions: SNB-75, CNS
[14] = system: LOX IMVI
[15] = system: MALME-3M
[16] = system: SK-MEL-28; conditions: SK-MEL-28, Melanoma
[17] = system: SK-MEL-5; conditions: SK-MEL-5, Melanoma
[18] = system: IGROV1; conditions: IGROV1, Ovarian
[19] = system: OVCAR-5; conditions: OVCAR-5, Ovarian
[20] = system: NCI/ADR-RES; conditions: Ovarian
[21] = system: SK-OV-3; conditions: SK-OV-3, Ovarian
[22] = system: 786-0; conditions: 786-0, Renal
[23] = system: ACHN
[24] = system: CAKI-1; conditions: CAKI-1, Renal
[25] = system: SN12C
[26] = system: UO-31; conditions: UO-31, Renal
[27] = system: DU-145; conditions: DU-145, Prostate
[28] = system: MCF7; conditions: MCF7, Breast
[29] = system: MDA-MB-231
[30] = system: HS 578T
[31] = system: MDA-MB-468; conditions: MDA-MB-468, Breast
[32] = read-out: 50% lethal concentration (LC50)
[33] = read-out: 50% lethal concentration (LC50), Melanoma
[34] = read-out: 50% lethal concentration (LC50), Renal

For `C=C1CCC2C3(C)COC(c4cn(-c5ccccc5)nc4-c4ccccc4)OC3CCC2(C)C1CC=C1C(=O)OCC1O` (stereo not shown) [1a], the GI50 [1] was 1.85 µM, the Total growth inhibition (TGI) [1] was 3.78 µM and the CC50 [1, 32] was 7.73 µM. The GI50 [2] was 1.64 µM, the Total growth inhibition (TGI) [2] was 3.16 µM and the CC50 [2, 32] was 6.1 µM. For the same compound, the GI50 [3] was 2.97 µM, the Total growth inhibition (TGI) [3] was greater than 100 µM and the CC50 [3, 32] was greater than 100 µM. It also gave a Total growth inhibition (TGI) ([4]; Non-Small Cell Lung) of 7.11 µM, a GI50 ([4]; Non-Small-Cell Lung) of 2.49 µM and a CC50 ([4]; read-out: 50% lethal concentration (LC50), Non-Small Cell Lung) greater than 100 µM. It also gave a Total growth inhibition (TGI) ([5]; HOP-92, Non-Small Cell Lung) of 2.99 µM, a GI50 ([5]; HOP-92, Non-Small-Cell Lung) of 1.53 µM and a CC50 ([5]; read-out: 50% lethal concentration (LC50), HOP-92, Non-Small Cell Lung) of 5.83 µM. The Total growth inhibition (TGI) ([6]; NCI-H226, Non-Small Cell Lung) was 4.31 µM, the GI50 ([6]; NCI-H226, Non-Small-Cell Lung) was 1.95 µM and the CC50 ([6]; read-out: 50% lethal concentration (LC50), NCI-H226, Non-Small Cell Lung) was 9.55 µM. The Total growth inhibition (TGI) ([7]; NCI-H460, Non-Small Cell Lung) was 3.35 µM, the GI50 ([7]; NCI-H460, Non-Small-Cell Lung) was 1.66 µM and the CC50 ([7]; read-out: 50% lethal concentration (LC50), NCI-H460, Non-Small Cell Lung) was 6.74 µM. The GI50 [8] was 2.01 µM, the Total growth inhibition (TGI) [8] was 3.57 µM and the CC50 [8, 32] was 6.31 µM. For the same compound, the GI50 [9] was 2.37 µM, the Total growth inhibition (TGI) [9] was 6.77 µM and the CC50 [9, 32] was greater than 100 µM. It also gave a GI50 [10] of 2.06 µM, a Total growth inhibition (TGI) [10] of 4.31 µM and a GI50 [11] of 1.73 µM. It also gave a Total growth inhibition (TGI) [11] of 3.68 µM, a CC50 [11, 32] of 7.82 µM and a GI50 [12] of 3.2 µM. For the same compound, the Total growth inhibition (TGI) [12] was 20.5 µM, the CC50 [12, 32] was greater than 100 µM and the GI50 [13] was 1.36 µM. The Total growth inhibition (TGI) [13] was 3.9 µM, the CC50 [13, 32] was 26.5 µM and the GI50 ([14]; Melanoma) was 1.54 µM. It also gave a Total growth inhibition (TGI) ([14]; Melanoma) of 3 µM, a CC50 [14, 33] of 5.85 µM and a GI50 ([15]; Melanoma) of 1.73 µM. It also gave a Total growth inhibition (TGI) ([15]; Melanoma) of 3.18 µM, a CC50 [15, 33] of 5.88 µM and a GI50 [16] of 1.77 µM. For the same compound, the Total growth inhibition (TGI) [16] was 3.38 µM, the CC50 [16, 32] was 6.45 µM and the GI50 [17] was 1.4 µM. It also gave a Total growth inhibition (TGI) [17] of 2.7 µM, a CC50 [17, 32] of 5.2 µM and a GI50 [18] of 1.77 µM. For the same compound, the Total growth inhibition (TGI) [18] was 3.44 µM, the CC50 [18, 32] was 6.66 µM and the GI50 [19] was 1.86 µM. For the same compound, the CC50 [19, 32] was 8.71 µM, the GI50 [20] was 4.75 µM and the Total growth inhibition (TGI) [20] was 5.31 µM. The GI50 [21] was 1.77 µM, the Total growth inhibition (TGI) [21] was 18.7 µM and the CC50 [21, 32] was 91.1 µM. The GI50 [22] was 2.03 µM, the Total growth inhibition (TGI) [22] was 4.47 µM and the CC50 [22, 32] was 9.83 µM. For the same compound, the GI50 ([23]; Renal) was 1.64 µM, the Total growth inhibition (TGI) ([23]; Renal) was 3.05 µM and the CC50 [23, 34] was 5.67 µM. The GI50 [24] was 1.86 µM, the Total growth inhibition (TGI) [24] was 4.81 µM and the GI50 ([25]; Renal) was 1.87 µM. The Total growth inhibition (TGI) ([25]; Renal) was 3.96 µM, the CC50 [25, 34] was 8.37 µM and the GI50 [26] was 1.35 µM. For the same compound, the Total growth inhibition (TGI) [26] was 2.69 µM, the CC50 [26, 32] was 5.36 µM and the GI50 [27] was 2.05 µM. The Total growth inhibition (TGI) [27] was 4.16 µM, the GI50 [28] was 2 µM and the Total growth inhibition (TGI) [28] was 9.09 µM. For the same compound, the CC50 [28, 32] was greater than 100 µM, the GI50 ([29]; MDA-MB-231, Breast) was 1.72 µM and the Total growth inhibition (TGI) ([29]; MDA-MB-231/ATCC, Breast) was 3.25 µM. It also gave a CC50 ([29]; read-out: 50% lethal concentration (LC50), MDA-MB-231/ATCC, Breast) of 6.15 µM, a GI50 ([30]; Breast) of 2.31 µM and a Total growth inhibition (TGI) ([30]; Breast) of 6.54 µM. The CC50 ([30]; read-out: 50% lethal concentration (LC50), Breast) was greater than 100 µM, the GI50 [31] was 1.69 µM and the Total growth inhibition (TGI) [31] was 3.34 µM. The CC50 [31, 32] was 6.58 µM.
